Assay results taken from US5798392A, “Sulfonyl fluorides for the treatment of Alzheimer's disease” (The Board of Regents of the University of Texas System, priority 1996, dated 1998).
Entries after “also recorded” stand apart in the source; their conditions may differ.

Legend:
[1] = test system: acetylcholinesterase; settings: cited from earlier work
[2] = test system: SDAT patients; settings: cited from earlier work
[3] = Prior tacrine treatment of two patients
[4] = target: T1, erythrocyte acetylcholinesterase (Homo sapiens, UniProt P22303); assay: Erythrocyte acetylcholinesterase substrate kinetics; assay type: biochemical
[5] = target: T1, erythrocyte acetylcholinesterase; assay: Erythrocyte acetylcholinesterase inhibition in blood after oral dosing of humans (Ellman assay); assay type: in vivo
[6] = target: plasma butyrylcholinesterase (Homo sapiens, UniProt P06276); assay: Plasma butyrylcholinesterase inhibition in blood after oral dosing (Experiment I); assay type: in vivo; settings: oral doses
[7] = test system: patients suffering from SDAT; assay: ADAS-COG cognitive performance, Experiment III double blind crossover; assay type: in vivo, human
[8] = test system: patients suffering from SDAT; assay: Mini Mental State Exam, Experiment III double blind crossover; assay type: in vivo, human; settings: p<0.01 one-tailed, paired t-test and Wilcoxon
[9] = test system: patients suffering from SDAT; assay: Clinical Interview Based Impression of Change (CIBIC), Experiment III; assay type: in vivo, human; settings: end of 16 week protocol; baseline 4.0; p<0.01 t-test one-tailed; spread SD
[10] = test system: patients suffering from SDAT; assay: Global Deterioration Scale, Experiment III; assay type: in vivo, human
[11] = test system: brain acetylcholinesterase; assay: Brain acetylcholinesterase inhibition in rodents and monkeys; design: species or system rodent and monkey; settings: monkey, in vivo
[12] = test system: rats and monkeys; assay: Pharmacological activity after intramuscular injection in oil vehicle; assay type: in vivo; settings: i.m., sterile oil vehicle
[13] = test system: acetylcholinesterase; assay: Reaction with acetylcholinesterase in brain membranes in vitro; assay type: biochemical; settings: solubilized in brain membranes, after removal from aqueous environment
[14] = test system: animal memory; settings: minimum of 50% inhibition; without toxicity; cited from earlier work
[15] = test system: brain acetylcholinesterase; settings: rodent and monkey brain; accumulated, small doses over a long period of time; up to; cited from earlier work
[16] = Chemical stability and solubility
[17] = Concentration in peripheral blood; settings: in vivo
[18] = Experiment III, safety in patients suffering from SDAT
[19] = Experiment II, Phase I tolerability in 10 normal subjects
[20] = Experiment I, side effects and clinical blood analyses in one normal volunteer; settings: 0.016-0.22 mg/kg oral
[21] = acetyl-β-methylthiocholine substrate, pH 7.4, 25° C

T1 sequence (P22303 32-574): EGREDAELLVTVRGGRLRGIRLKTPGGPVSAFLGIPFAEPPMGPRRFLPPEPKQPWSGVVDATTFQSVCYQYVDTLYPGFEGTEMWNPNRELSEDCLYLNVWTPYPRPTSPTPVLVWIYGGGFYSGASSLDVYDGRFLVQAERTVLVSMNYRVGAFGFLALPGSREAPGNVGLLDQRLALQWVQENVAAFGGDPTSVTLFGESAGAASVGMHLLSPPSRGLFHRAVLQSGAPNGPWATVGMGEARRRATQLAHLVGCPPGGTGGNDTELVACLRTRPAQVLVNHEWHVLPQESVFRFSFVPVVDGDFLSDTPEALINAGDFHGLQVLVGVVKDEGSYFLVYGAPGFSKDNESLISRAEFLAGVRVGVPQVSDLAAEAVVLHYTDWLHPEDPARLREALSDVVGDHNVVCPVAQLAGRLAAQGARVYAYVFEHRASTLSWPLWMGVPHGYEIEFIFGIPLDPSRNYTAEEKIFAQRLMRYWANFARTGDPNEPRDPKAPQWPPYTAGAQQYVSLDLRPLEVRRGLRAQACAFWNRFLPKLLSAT
plasma butyrylcholinesterase, sequence (P06276 29-602): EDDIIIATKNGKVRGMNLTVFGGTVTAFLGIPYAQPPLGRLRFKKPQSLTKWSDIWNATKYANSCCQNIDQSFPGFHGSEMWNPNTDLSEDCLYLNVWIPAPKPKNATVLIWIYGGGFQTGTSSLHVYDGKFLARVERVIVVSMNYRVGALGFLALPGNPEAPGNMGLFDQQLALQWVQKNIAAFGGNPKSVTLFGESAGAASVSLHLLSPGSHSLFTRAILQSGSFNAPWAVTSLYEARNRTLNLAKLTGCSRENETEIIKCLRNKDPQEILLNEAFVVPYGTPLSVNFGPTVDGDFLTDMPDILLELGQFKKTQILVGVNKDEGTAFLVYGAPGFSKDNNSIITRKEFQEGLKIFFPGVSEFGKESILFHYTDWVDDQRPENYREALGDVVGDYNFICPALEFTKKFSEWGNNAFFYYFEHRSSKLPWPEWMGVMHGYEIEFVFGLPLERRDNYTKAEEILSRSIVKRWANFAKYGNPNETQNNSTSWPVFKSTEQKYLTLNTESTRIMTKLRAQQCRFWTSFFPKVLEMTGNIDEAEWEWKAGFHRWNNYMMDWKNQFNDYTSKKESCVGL

CNC(=O)Oc1ccc2c(c1)[C@]1(C)CCN(C)[C@@H]1N2C [physostigmine, reference compound]
selectivity for acetylcholinesterase in comparison to butyrylcholinesterase [1]: do not show this high degree of selectivity

Nc1c2c(nc3ccccc13)CCCC2 [tacrine]
mean improvement on the ADAS-COG ([2]; high dose tacrine, patients who could tolerate): 2 points
patients who could tolerate ([2]; high dose tacrine): 40%
patients who failed to complete the protocol because of drug-related adverse events ([2]; high dose tacrine): about 60%
adverse events related to treatment ([2]; in vivo): cholinergic side effects (nausea, vomiting, diarrhea, etc.) and liver toxicity
prior adverse effects ([3]; one patient each): liver toxicity; also recorded: vomiting
highest tolerated dose (limited by vomiting) ([3]; one patient, an ineffective dose): 60 mg/day

CC(=O)SC(C)C[N+](C)(C)C (stereo not drawn) [acetyl-β-methylthiocholine]
percent of Vmax produced by substrate concentration ([4]; 1.0 mM substrate, approximately 10 times Km, without substrate inhibition): about 91%
Acetylcholinesterase Vmax [4, 21]: 9.2552 (SEM=0.6386) ×10-6 moles/gram of erythrocytes/min
erythrocyte acetylcholinesterase Vmax [4, 21]: 9.2552 (SEM=0.6386) ×10^-6 moles/gm/min

COP(=O)(OC)C(O)C(Cl)(Cl)Cl (centres unmarked) [metrifonate, reference compound]
selectivity for acetylcholinesterase in comparison to butyrylcholinesterase [1]: do not show this high degree of selectivity

CS(=O)(=O)F [methanesulfonyl fluoride]
inhibition at 0.14 mg/kg ([5]; 0.14 mg/kg oral three times per week, Experiment III, spread SEM in %): 85.3%
inhibition at 0.18 mg/kg ([5]; 0.18 mg/kg oral three times per week, Experiment III, spread SEM in %): 89.5%
estimated minimum therapeutic dose ([5]; 18% inhibition of remaining active enzyme per dose, Experiment I): 0.11 mg/kg
refined estimation of the (minimum) therapeutic dose ([5]; 18% inhibition of remaining enzyme, three times per week, Experiments I and II): 0.14 mg/kg
dose-response correlation r ([5]; Experiment II, FIG. 6, least squares linear regression): +0.8956
dose/response relationship ([5]; Experiment II, FIG. 6, oral): orderly and consistent dose/response relationship
dose required to produce 18% inhibition of acetylcholinesterase remaining active ([5]; Experiment II, oral): 0.143 mg/kg
selectivity for erythrocyte acetylcholinesterase ([5]; FIG. 4, Experiment I oral doses, versus plasma butyrylcholinesterase): strongly selective for erythrocyte acetylcholinesterase
recovery kinetics of erythrocyte acetylcholinesterase ([5]; FIG. 5, 80 days after treatment ceased): follows pseudo-first order kinetics; also recorded: strictly linear plot of LOG10 [%INH] against time
half-life for recovery of erythrocyte acetylcholinesterase ([5]; FIG. 5, Experiment I, 80 days after last dose): 43 days
activity by oral administration (erythrocyte acetylcholinesterase inhibition) ([5]; oral, Experiment I, FIG. 1): active by oral administration
dose-response of erythrocyte acetylcholinesterase inhibition ([5]; oral, Experiment I, FIG. 1, one observation at each dose): orderly dose-response curve
inhibition of erythrocyte acetylcholinesterase ([5]; patients treated up to 8 weeks): 85-90%
correlation coefficient r, LOG10 [% inhibition] against time ([5]; recovery of erythrocyte acetylcholinesterase, FIG. 5, least squares linear regression): -0.9254
inhibition of plasma butyrylcholinesterase [6]: virtually no inhibition of plasma butyrylcholinesterase
percent improvement on the ADAS-COG ([7]; 6 point reduction from 30 errors): 20%
mean improvement on the ADAS-COG ([7]; Experiment III, mean of 30 errors at beginning): 6 points
cognitive performance (reduction in errors on the ADAS-COG) ([7]; FIG. 7, during methanesulfonyl fluoride treatment): substantial improvement of cognitive performance
duration of improvement after treatment ([7]; after/through 8 weeks of placebo treatment): still clearly present after 8 weeks of placebo treatment; also recorded: maintained through 8 weeks of placebo
efficacy compared with tacrine in enhancing cognitive functions in SDAT ([7]; in vivo): significantly greater efficacy than tacrine
improvement on ADAS-COG maintained throughout 8 additional weeks of placebo ([7]; methanesulfonyl fluoride first, then placebo): about 6 points
ADAS-COG change in 8 weeks compared to placebo ([7]; p<0.01 one-tailed, paired t-test and Wilcoxon): significant improvement compared to the placebo
correlation of ADAS-COG improvement with baseline ADAS-COG errors ([7]; p<0.05, N=15): +0.6
Mini-Mental State score change in 8 weeks compared to placebo [8]: significant improvement compared to the placebo
mean CIBIC [9]: 2.98 (SD=1.13)
mean improvement in Global Deterioration Score ([10]; 16 weeks versus baseline, p<0.01 t-test one-tailed, spread SEM): 1.3 (SEM=0.33)
mean Global Deterioration Score at the end of the protocol ([10]; end of 16 week protocol, baseline 4.4 (SEM=0.21)): 3.1
inhibition in brain versus peripheral tissues [11]: much more inhibition in brain than peripheral tissues
pharmacological activity if injected intramuscularly [12]: pharmacologically active
continued reaction against acetylcholinesterase [13]: continues to react against acetylcholinesterase even after it is removed from the aqueous environment of the membranes in vitro
mechanism and duration of acetylcholinesterase inhibition [1]: long-acting irreversible inhibitor of acetylcholinesterase
selectivity for acetylcholinesterase in comparison to butyrylcholinesterase [1]: high selectivity
enhancement of animal memory [14]: strong methanesulfonyl fluoride-induced enhancement of animal memory without toxicity
inhibition of brain acetylcholinesterase [15]: 80-90%
solubility in lipids ([16]; lipids): highly soluble in lipids
chemical stability in water solutions ([16]; water solutions): would degrade in water solutions
concentration in the peripheral blood [17]: drops within hours
adverse events ([18]; 0.14 mg/kg, first 7 patients): no adverse events
clinical blood profiles, especially transaminases ([18]; Experiment III): no changes in clinical blood profiles
nausea, vomiting, diarrhea, or other cholinergic side effects ([18]; Experiment III): no patients suffered
signs of toxicity at the doses used ([18]; Experiment III): no signs of methanesulfonyl fluoride toxicity
adverse events related to drug treatment ([18]; Experiment III, 0.14-0.18 mg/kg): no adverse events
patients leaving the protocol because of a drug-related adverse event ([18]; Experiment III, 21 enrolled, 15 completed): No patients
peripheral cholinergic or other toxic effects ([18]; doses sufficient for treatment of dementia): not accompanied by peripheral cholinergic or other toxic effects
hematocrit changes ([18]; patients, up to 8 weeks, 85-90% inhibition of erythrocyte acetylcholinesterase): no changes in hematocrit
adverse events in patients with known tacrine sensitivity ([18]; two patients with prior tacrine adverse effects): Neither of these patients with known sensitivities experienced adverse events
tolerability ([19]; 0.03-0.18 mg/kg oral, Experiment II): All doses used were tolerated well
safety at range of doses expected to produce a therapeutic effect ([19]; Experiments I and II): safe at the range of doses expected to produce a therapeutic effect
oral absorption ([19]; oral, Experiment II): consistently absorbed after oral administration
changes in the clinical blood analyses [20]: no changes of any type in the clinical blood analyses
cholinergic effects (e.g., diarrhea, vomiting, nausea) [20]: no cholinergic effects
